Publication PMC6212948, “Fucoxanthin-Containing Cream Prevents Epidermal Hyperplasia and UVB-Induced Skin Erythema in Mice” (Marine Drugs, 2018)

Legend:
[1] = test system: TPA-induced epidermal hyperplasia in mice dorsal skin; test: TPA-induced epidermal hyperplasia model; format: in vivo, Swiss CD-1 mice; conditions: topical cream 100 mg per site containing 200 µg drug, vs TPA-cream group
Method: Female Swiss CD-1 mice (n = 10 per group) were used to study the effect of FX on TPA-induced hyperplasia in mice dorsal skin. Briefly, the dorsal hair of animals was removed with an electric clipper and treated with depilatory cream (Deliplus, Barcelona, Spain). After 24 h, the animals were assigned to the different groups: Sham (vehicle: 100 mg of cream with 0.2% of ethanol); TPA control group; TPA-Cream (vehicle: 100 mg of cream with 0.2% of ethanol); Dex-cream (100 mg of cream per site, containing 200 µg of Dex dissolved in ethanol at 10 µg/mL); FX-cream formulation (100 mg of cream per site, containing 200 µg of FX dissolved in ethanol at 10 µg/mL). The creams were applied to the dorsal skin in an area of 1 cm^2 using a syringe, during 2 days before the hyperplasia induction. Mice were anesthetized with ketamine (100 mg/kg of animal) and diazepam (5 mg/kg of animal) during treatments and TPA challenge. On day 4, TPA (2 nmol of TPA, dissolved in 20 µL of ethanol) was topically applied to the same areas on all groups except in sham group. After 1 h, FX-cream, the Dex-cream or vehicle were administered following the mentioned protocol. This procedure was replicated during two consecutive days. After 24 h of the last TPA dorsal application (day 7), mice were sacrificed by cervical dislocation and punch biopsies from the treated dorsal skin were weighed to evaluate edema, before further processing for histology and biochemical parameters.
The measurement of MPO activity was used as a marker of neutrophil infiltration. The tissue was thawed, weighed and homogenized in 10 volumes of 50 mM-PBS (pH 7.4). Then, the homogenate was centrifuged at 20,000× g for 20 min at 4 °C and the pellet was again homogenized in 10 volumes of 50 mM-PBS (pH 6) containing hexadecyl trimethylammonium bromide (0.5%) and 10 mM-EDTA. This homogenate was subjected to one cycle of freezing/thawing and sonicated. […] The changes in absorbance were monitorized at 450 nm with a microplate reader (Labysystem Multiskan EX, Thermo Scientific, New York, NY, USA). MPO activity unit was defined as the amount of enzyme present that produced a change in absorbance of 1.0 unit/min at 37 °C in the final reaction volume containing acetate. Results are expressed as units/mg tissue.
The samples were fixed in paraformaldehyde, dehydrated by increasing concentrations of ethanol and embedded in paraffin. […] Epidermal thickness was measured by using Scientific Imaging Systems (Biophotonics ImageJ Analysis Software; National Institutes of Health, Rockville, MD, USA).
COX-2 expression was measured by immunohistochemical analysis by using a streptavidin-biotin-peroxidase method. […]

[2] = test system: IL-6 production in UVB-exposed HaCaT keratinocytes; test: IL-6 production in UVB-exposed HaCaT keratinocytes (ELISA); format: cell-based, human; conditions: 1 h prior to UVB, 24 h after exposure, vs UVB
Method: (§1) Human keratinocytes were exposed to UVB radiation as previously described. Briefly, the cells were grown to confluence and were treated with different concentrations of FX (10, 30 and 50 µM) for 1 h. Then, the medium was removed and a thin layer of PBS was added. Cells were exposed to a single dose of UVB radiation (50 mJ/cm^2) for 1 min. The UVB source was a CL-1000M UV Crosslinker (UVP, Upland, CA, USA), which was used to deliver an energy spectrum of UVB light (280–315 nm; peak intensity, 302 nm). After UVB irradiation, the cells were supplied with fresh complete medium and incubated for 24 h.
HaCaT cells (5 × 10^5 cells/well) were seeded in 6-well plates. After 24 h, cells were treated with FX (10, […] and 50 μM) for 1 h and then, were exposed to UVB. After 24 h, supernatant fluids were collected and ELISA kit (Diaclone GEN-PROBE, Besançon, France) was employed to quantify IL-6 according to the manufacturer’s protocol. The absorbance at 450 nm was read by a microplate reader (Labysystem Multiskan EX, Thermo Scientific, New York, NY, USA).

[3] = test system: IL-6 and IL-8 production in TNF-α-stimulated HaCaT keratinocytes; test: IL-6 and IL-8 production in TNF-α-stimulated HaCaT keratinocytes (ELISA); format: cell-based, human; conditions: all concentrations tested (10, 30 and 50 μM), 1 h pre-treatment, TNF-α 10 ng/mL 24 h, vs TNF-α group
Method: HaCaT cells were seeded in 6-well plates (5 × 10^5 cells/well). After 24 h, cells were washed twice (PBS, 4 °C) and medium containing FX (10, 30 and 50 μM) or Dex (1 μM) was added for 1 h, and then cells were stimulated with TNF-α (10 ng/mL) except for control group. After 24 h, supernatant fluids were collected and stored −80 °C until measurements. Commercial enzyme-linked immunosorbent assay (ELISA) kit (Diaclone GEN-PROBE, Besançon, France) was used to quantify IL-6 and IL-8 according to the manufacturer’s protocol.

[4] = cited from earlier work
[5] = test system: HaCaT human keratinocytes; test: SRB cell viability assay, HaCaT keratinocytes; format: cell-based; conditions: for % Viability HaCaT keratinocytes (24 h): mean ± ES, n = 3
Method: (§2) The THP-1 human monocytic leukemia cell line and HaCaT human keratinocytes were obtained from the American Type Culture Collection (ATCC, Manassas, VA, USA). THP-1 cells were cultured in RPMI 1640 medium (GIBCO, Grand Island, New York, NY, USA) containing 10% heat-inactivated fetal bovine serum (FBS), 100 U/mL penicillin and 100 μg/mL streptomycin. HaCaT human keratinocytes were maintained in high glucose Dulbecco’s modified Eagle’s medium (DMEM, GIBCO, Grand Island, New York, NY, USA). Both cell lines were grown in a humidified atmosphere containing 5% CO2 at 37 °C [20].
(§3) SRB assay was used for determining the viability of THP-1 macrophages and HaCaT cells upon exposure to FX (Sigma-Aldrich, St. Louis, MO, USA). Firstly, for differentiation into macrophages, THP-1 cells were seeded into 96-well plates at 10^4 cells/well in presence of phorbol 12-myristate 13-acetate (PMA, Sigma-Aldrich, St. Louis, MO, USA) for a final concentration of 0.2 µM for 72 h in 96-well plates and HaCaT cells were seeded into 96-well plates in the growth medium at 10^4 cells/well for 24 h to ensure the adherence. Both cellular types were incubated in a humidified atmosphere of 5% CO2 at 37 °C. After that, cells were treated with FX at final concentrations range of 10–100 µM in DMSO 0.1% (v/v) and the cytotoxicity was measured after 24, 48 and 72 h of incubation. The absorbance was determined at 492 nm in a microplate spectrophotometer (Sinergy HT, Biotek®, Bad Friedrichshall, Germany).

[6] = test system: TNF-α production in LPS-stimulated THP-1 macrophages; test: TNF-α production in LPS-stimulated THP-1 macrophages (ELISA); format: cell-based, human
Method: THP-1 monocytes were differentiated into macrophages in 96-well plates (10^4 cells/well). Then, cells were incubated for 1 h with FX (10, 30 and 50 µM). The positive reference compound used was Dex (1 µM) (Sigma-Aldrich, St. Louis, MO, USA). Inflammatory response was induced by addition of LPS (1 μg/mL) except for control group. After 24 h, commercial enzyme-linked immunosorbent assay (ELISA) kit (Diaclone GEN-PROBE, Besançon, France) was used to quantify TNF-α according to the manufacturer’s protocol.

[7] = test system: UVB-irradiated HaCaT cells; test: LDH assay in UVB-irradiated HaCaT keratinocytes; format: cell-based, human; conditions: 10, 30 and 50 μM, 1 h prior to UVB 50 mJ/cm^2, 24 h, dose-dependent
Method: as §1
The measure of cytosolic enzyme LDH is one of the commonly used methods for assessing loss of cellular membrane integrity. The assay is based on the conversion of […] in the presence of LDH with the consequence oxidation of NADH as previously described. HaCaT cells were seeded in 6-well plates (5 × 10^5 cells/well). After 24 h, cells were treated with FX (10, 30 and 50 μM) for 1 h and then, were irradiated with UVB. After 24 h, cell-free supernatants and cell lysates were mixed in a 96-well plate and the absorbance was read by using a microplate reader system (Sinergy HT, Biotek®, Bad Friedrichshall, Germany). LDH leakage was estimated calculating the LDH activity in the cell-free medium and LDH activity in lysates ratio. […]

[8] = test system: UVB-irradiated HaCaT cells; test: Intracellular ROS (DCF-DA assay) in UVB-irradiated HaCaT keratinocytes; format: cell-based, human; conditions: 1 h prior to UVB 50 mJ/cm^2, 30 min after irradiation, vs UVB
Method: as §1
For quantification of ROS in HaCaT cells, the DCF-DA assay was employed. HaCaT cells were seeded in nin96-well plates (10^4 cells/well). Non-irradiated cells were used as negative control. After 24 h, cells were treated with FX (10, 30 and 50 µM) for 1 h and then, were exposed to UVB. Post irradiation, cells were incubated with 2′,7′-dichlorodihydrofluorescein diacetate (DCFH-DA) solution (5 mg/mL) in PBS for 30 min [63]. The fluorescence of the 2′,7′-dichlorofluorescein (DCF) product was determined using a fluorescence plate reader (Sinergy HT, Biotek®, Bad Friedrichshall, Germany) at 485 nm for excitation and 535 nm for emission.

[9] = test system: THP-1 macrophages; test: SRB cell viability assay, THP-1 macrophages; format: cell-based, human; conditions: for % Viability THP-1 macrophages (24 h): mean ± ES, n = 3
Method: as §2, §3

[10] = 24 h after treatment, SRB assay

## C[C@@H]1C[C@H]2[C@@H]3CCC4=CC(=O)C=C[C@]4(C)[C@@]3(F)[C@@H](O)C[C@]2(C)[C@@]1(O)C(=O)CO [Dex, dexamethasone]
[1]
  epidermal hyperplasia (epidermal thickness, H&E): significant improvement
  myeloperoxidase (MPO) activity in skin homogenates: markedly diminished
[1]; p < 0.001
  epidermal COX-2-positive stained cells (immunohistochemistry): confirmed the anti-inflammatory effect
  skin edema (weight of 1 cm^2 punch biopsy): significantly reduced

## CC(=O)O[C@H]1CC(C)(C)C(=C=C/C(C)=C/C=C/C(C)=C/C=C/C=C(C)/C=C/C=C(\C)C(=O)C[C@@]23O[C@]2(C)C[C@@H](O)CC3(C)C)[C@](C)(O)C1 [FX, fucoxanthin]
[2]; 10 μM
  inhibition of IL-6 levels: 23%
[2]; 30 μM
  inhibition of IL-6 levels: 31%
[2]; 50 μM
  inhibition of IL-6 levels: 59%
[3]
  IL-6 production: significantly reduced
  IL-8 production: significantly reduced
[4]
  partition coefficient (log P): 6.83–7.54
[5]; 10 μM
  % Viability HaCaT keratinocytes (24 h): 111.2 ± 2.1%
[5]; 30 μM
  % Viability HaCaT keratinocytes (24 h): 105.2 ± 4.0%
[5]; 50 μM
  % Viability HaCaT keratinocytes (24 h): 103.9 ± 3.2%
[5]; 100 μM
  % Viability HaCaT keratinocytes (24 h): 101.5 ± 2.2%
[5]; [10]
  IC50: > 100 µM
[6]; 50 µM pre-treatment, LPS-stimulated, p < 0.001, similar values to Dex 1 μM
  TNF-α production: significant reduction
[6]; all concentrations tested (10, 30 and 50 μM), 1 h pre-treatment, LPS 1 μg/mL 24 h, vs LPS group
  TNF-α production: significantly reduced
[7]
  UVB-induced mortality (LDH activity): significantly decreased
[8]; 10 μM
  reduction of ROS levels: 23%
[8]; 30 μM
  reduction of ROS levels: 31%
[8]; 50 μM
  reduction of ROS levels: 32%
[9]; 10 μM
  % Viability THP-1 macrophages (24 h): 97.5 ± 2.0%
[9]; 30 μM
  % Viability THP-1 macrophages (24 h): 96.5 ± 1.2%
[9]; 50 μM
  % Viability THP-1 macrophages (24 h): 103.7 ± 1.1%
[9]; 100 μM
  % Viability THP-1 macrophages (24 h): 90.7 ± 0.5%
[9]; [10]
  IC50: > 100 µM
